Tested on: 435261-313-R-J1-PDC complex spheroid viability
Test: Anticancer human tumor 435261-313-R-J1-PDC patient-derived colon adenocarcinoma cell line growth inhibition [GQUAD]
Details: for IC50: curve of first compound; for viability, T/C: stronger effect = lower value; active = viability on the fitted dose curve at most 10% of control; inactive = the rest
Description: DNA G-quadruplex Stabilizer Agents in Combinations in Complex Spheroids
A high-throughput screen of multi-cell type tumor spheroids was designed to identify active combinations of DNA G-quadruplex stabilizer agents and targeted small molecules. Complex spheroids include a stromal component modeled by human endothelial cells (HUVEC) and fibroblasts modeled by human mesenchymal stem cells (MSCs). The concentration ranges selected for each drug and investigational agent were based upon clinically achievable concentrations if the clinical Cmax of the agent was known.
Compounds. The drugs and investigational agents: pidnarulex (CX-5461; NSC782164), APTO-253 (NSC789042), BRACO-19 (NSC847499), peposertib (NSC802822), ceralasertib (NSC780249), elimusertib (NSC800525), camonsertib (NSC841442), AZD-1390 (NSC803789), olaparib (NSC753686), talazoparib (NSC767125), ART-558 (NSC835418), sotorasib (NSC818433), MRTX-1133 (NSC836407), SN-38 (NSC673596), topotecan (NSC609699), etoposide (NSC141540), doxorubicin (NSC123127), gemcitabine (NSC613327), 5-fluorouracil (NSC19893), paclitaxel (NSC125973), vemurafenib (NSC761431), panobinostat (NSC761190), R-306465 (JNJ-16241199; NSC773264), adavosertib (NSC754352), TP-3654 (NSC805149), carboplatin (NSC241240), KSQ-4279 (NSC840948), and staurosporine (NSC755774) were obtained from the National Cancer Institute (NCI) Developmental Therapeutics Program Chemical Repository (34). The FDA-approved anticancer drug set is available from the NCI Developmental Therapeutics Program. […] The stock solutions were prepared in dimethyl sulfoxide (DMSO, Sigma-Aldrich, St. Louis, MO, cat. D2650) at 800-fold the tested concentration and stored at -70 degrees C prior to their use. All drugs and investigational agents were tested over a range starting from a high concentration at or near the clinical Cmax and decreasing in half-log increments. If the clinical Cmax for an agent had not been determined, the highest concentration tested was 10 microM.
2.3 Cell Culture. All cells were maintained in an incubator at 37 degrees C and 5% CO2 with 95% humidity. The PDC lines were cultured according to standard operating procedures established by the NCI PDMR. All PDCs were thawed and cultured in Matrigel-coated flasks prepared with a working solution of 1X Ham's F-12 nutrient mix, without supplementation (Invitrogen, cat. 11765054), 100 U/mL penicillin-streptomycin (Invitrogen, cat. 15140122), and 2.5% Matrigel (Corning Inc., cat. 354248) for the first three passages. The 857933-349-R-J2-PDC line was cultured in 6C/Colon 1B media, which includes advanced DMEM/F-12 (Thermo Fisher Scientific, cat. 12634028), 10 mM HEPES (Thermo Fisher Scientific, cat. 15630080), 1X GlutaMAX supplement (Thermo Fisher Scientific, cat. 35050061), 0.1 mg/mL primocin (InvivoGen, cat. ant-pm-2), 10% defined fetal bovine serum, heat inactivated (HyClone Laboratories Inc., cat. SH30070.03HI), 50% L-WRN conditioned media (ATCC, cat. CRL-3276), 1.25 mM N-Acetyl-L-cysteine (Sigma-Aldrich, cat. A9165), 10 mM nicotinamide (Sigma-Aldrich, cat. N0636), 1X B-27 supplement (Thermo Fisher Scientific, cat. 17504044), 1X N-2 supplement (Thermo Fisher Scientific, cat. 17502048), 10 microM Y-27632 dihydrochloride (Tocris Bioscience, cat. 1254), and 50 ng/mL human EGF recombinant protein (Thermo Fisher Scientific, cat. PHG0311). The 485176-168-R4-J1-PDC line was cultured in Panc media, which includes all 6C/Colon 1B media components plus 100 ng/mL human FGF-10 (Thermo Fisher Scientific, cat. 100-26), 500 nM SB-431542 (Selleckchem, cat. S1067), and gastrin (Tocris, cat. 3006).
[…]

[1] = second compound 0.0316 µM, first compound 0.0316 µM
[2] = second compound 0.0316 µM, first compound 0.1 µM
[3] = second compound 0.0316 µM, first compound 0.316 µM
[4] = second compound 0.0316 µM, first compound 1 µM
[5] = second compound 0.0316 µM, first compound 3.16 µM
[6] = second compound 0.0316 µM, first compound 10 µM
[7] = second compound 0.1 µM, first compound 0.0316 µM
[8] = second compound 0.1 µM, first compound 0.1 µM
[9] = second compound 0.1 µM, first compound 0.316 µM
[10] = second compound 0.1 µM, first compound 1 µM
[11] = second compound 0.1 µM, first compound 3.16 µM
[12] = second compound 0.1 µM, first compound 10 µM
[13] = second compound 0.316 µM, first compound 0.0316 µM
[14] = second compound 0.316 µM, first compound 0.1 µM
[15] = second compound 0.316 µM, first compound 0.316 µM
[16] = second compound 0.316 µM, first compound 1 µM
[17] = second compound 0.316 µM, first compound 3.16 µM
[18] = second compound 0.316 µM, first compound 10 µM
[19] = second compound 1 µM, first compound 0.0316 µM
[20] = second compound 1 µM, first compound 0.1 µM
[21] = second compound 1 µM, first compound 0.316 µM
[22] = second compound 1 µM, first compound 1 µM
[23] = second compound 1 µM, first compound 3.16 µM
[24] = second compound 1 µM, first compound 10 µM
[25] = second compound 3.16 µM, first compound 0.0316 µM
[26] = second compound 3.16 µM, first compound 0.1 µM
[27] = second compound 3.16 µM, first compound 0.316 µM
[28] = second compound 3.16 µM, first compound 1 µM
[29] = second compound 3.16 µM, first compound 3.16 µM
[30] = second compound 3.16 µM, first compound 10 µM
[31] = second compound 10 µM, first compound 0.0316 µM
[32] = second compound 10 µM, first compound 0.1 µM
[33] = second compound 10 µM, first compound 0.316 µM
[34] = second compound 10 µM, first compound 1 µM
[35] = second compound 10 µM, first compound 3.16 µM
[36] = second compound 10 µM, first compound 10 µM
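Note: spheroids exposed to the agents for seven days before readout.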
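Throughout, for viability, T/C: percent of vehicle control viability with DMSO wells as 100%.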

COc1cccc2c1C(=O)c1c(O)c3c(c(O)c1C2=O)CC(O)(C(=O)CO)CC3OC1CC(N)C(O)C(C)O1 (stereo unspecified) + CN(C)c1ccc(Nc2c3ccc(NC(=O)CCN4CCCC4)cc3nc3cc(NC(=O)CCN4CCCC4)ccc23)cc1
644 nM: IC50 (second compound 0.1 µM)
582 nM: IC50 (second compound 0.316 µM)
491 nM: IC50 (second compound 0.0316 µM)
< 31.6 nM: IC50 (second compound 10 µM)
152 nM: IC50 (second compound 3.16 µM)
439 nM: IC50 (second compound 1 µM)
inactive: viability, T/C [1] 83.2% | viability, T/C [2] 71.2% | viability, T/C [3] 65.4% | viability, T/C [4] 26.9% | viability, T/C [7] 73.4% | viability, T/C [8] 87% | viability, T/C [9] 78.7% | viability, T/C [10] 32.1% | viability, T/C [13] 76.3% | viability, T/C [14] 79.1% | viability, T/C [15] 70.5% | viability, T/C [16] 31.5% | viability, T/C [19] 83% | viability, T/C [20] 69.8% | viability, T/C [21] 58.7% | viability, T/C [22] 31.9% | viability, T/C [25] 46.8% | viability, T/C [26] 62.5% | viability, T/C [27] 42% | viability, T/C [28] 16.4% | viability, T/C [31] 37.7% | viability, T/C [32] 28% | viability, T/C [33] 17.7% | viability, T/C [34] 12%
active: viability, T/C [5] 2.29% | viability, T/C [6] 5.25% | viability, T/C [11] 3.52% | viability, T/C [12] 4.61% | viability, T/C [17] 2.47% | viability, T/C [18] 2.91% | viability, T/C [23] 1.79% | viability, T/C [24] 3.08% | viability, T/C [29] 1.33% | viability, T/C [30] 3.49% | viability, T/C [35] 2.28% | viability, T/C [36] 3.53%

Nc1ccn(C2OC(CO)C(O)C2(F)F)c(=O)n1 (stereo unspecified) + CN(C)c1ccc(Nc2c3ccc(NC(=O)CCN4CCCC4)cc3nc3cc(NC(=O)CCN4CCCC4)ccc23)cc1
2840 nM: IC50 (second compound 3.16 µM)
< 31.6 nM: IC50 (second compound 10 µM)
> 10000 nM: IC50 (second compound 0.0316 µM) | IC50 (second compound 0.1 µM) | IC50 (second compound 0.316 µM) | IC50 (second compound 1 µM)
inactive: viability, T/C [1] 90.2% | viability, T/C [2] 78.8% | viability, T/C [3] 90% | viability, T/C [4] 83% | viability, T/C [5] 77.2% | viability, T/C [6] 60.9% | viability, T/C [7] 85.3% | viability, T/C [8] 103% | viability, T/C [9] 72.5% | viability, T/C [10] 84.5% | viability, T/C [11] 70.4% | viability, T/C [12] 68.5% | viability, T/C [13] 98.4% | viability, T/C [14] 94.8% | viability, T/C [15] 70.4% | viability, T/C [16] 68.3% | viability, T/C [17] 76.9% | viability, T/C [18] 67.8% | viability, T/C [19] 79.9% | viability, T/C [20] 78.2% | viability, T/C [21] 74.5% | viability, T/C [22] 68.1% | viability, T/C [23] 78.8% | viability, T/C [24] 66.5% | viability, T/C [25] 68.7% | viability, T/C [26] 58% | viability, T/C [27] 53.2% | viability, T/C [28] 57.5% | viability, T/C [29] 54% | viability, T/C [30] 38.7% | viability, T/C [31] 30.9% | viability, T/C [32] 26.6% | viability, T/C [33] 26.2% | viability, T/C [34] 32.9% | viability, T/C [35] 26.5% | viability, T/C [36] 24.9%

COc1ccc([C@@H](O)c2cc(-c3ncnc4cc(N5CCOCC5)ccc34)c(F)cc2Cl)nn1 + Cc1[nH]c2ccc(F)cc2c1-c1nc2c3cccnc3c3ncccc3c2[nH]1
4220 nM: IC50 (second compound 0.1 µM)
3420 nM: IC50 (second compound 0.316 µM)
inactive: viability, T/C [1] 88.7% | viability, T/C [2] 64.5% | viability, T/C [3] 88.6% | viability, T/C [4] 50.8% | viability, T/C [5] 44.5% | viability, T/C [6] 30.4% | viability, T/C [7] 99% | viability, T/C [8] 97.6% | viability, T/C [9] 106% | viability, T/C [10] 70.2% | viability, T/C [11] 62.7% | viability, T/C [12] 24.5% | viability, T/C [13] 63.4% | viability, T/C [14] 99.4% | viability, T/C [15] 70.5% | viability, T/C [16] 87.9% | viability, T/C [17] 51.8% | viability, T/C [18] 25.2% | viability, T/C [19] 67.8% | viability, T/C [20] 65.3% | viability, T/C [21] 82% | viability, T/C [22] 45.2% | viability, T/C [23] 55.4% | viability, T/C [24] 20% | viability, T/C [25] 45.2% | viability, T/C [26] 30.1% | viability, T/C [27] 35.5% | viability, T/C [28] 36.4% | viability, T/C [29] 13.6% | viability, T/C [31] 19.8% | viability, T/C [32] 21.9% | viability, T/C [33] 27.1% | viability, T/C [34] 18.7% | viability, T/C [35] 13.2% | viability, T/C [36] 8.61%
< 31.6 nM: IC50 (second compound 3.16 µM) | IC50 (second compound 10 µM)
1080 nM: IC50 (second compound 0.0316 µM)
2810 nM: IC50 (second compound 1 µM)
active: viability, T/C [30] 10.9%

— PubChem BioAssay AID2060494 (Molecular Pharmacology Branch, DTP, NCI, 2025)
